Our source for the chromatographic logP, efficacy and logP values is patent US8519003B2, “Phenoxyphenylamidines as fungicides” (priority 2007, dated 2013).

Data set [1] can be described thus: logP determination (acidic / HCOOH and neutral). The conditions noted are these: for chromatographic logP: acidic, HCOOH (formic acid).
The test system of data set [2] is Erysiphe graminis f. sp. hordei. The experiment in a line: Erysiphe test (barley)/protective. In kind it is in vivo. The conditions noted are these: protective, active compound concentration 500 ppm, evaluation 7 days after inoculation. The protocol: Erysiphe Test (Barley)/Protective [table] To produce a suitable preparation of active compound, 1 part by weight of N-ethyl-N-methyl-N′-[4-phenoxy-2,5-xylyl]formamidine (according to formula (1)) is mixed with the stated amounts of solvent and emulsifier, and the concentrate is diluted with water to the desired concentration. To test for protective activity, young cereal plants are sprayed with the active compound preparation at the stated application rate. 1 day after the treatment, the plants are inoculated with spores of Erysiphe graminis f. sp. hordei. The plants are then placed in a greenhouse at 70% relative atmospheric humidity and a temperature of 18° C. Evaluation is carried out 7 days after the inoculation. 0% means an efficacy which corresponds to that of the control, whereas an efficacy of 100% means that no infection is observed.

The test system of another data set is Uromyces appendiculatus. Briefly: Uromyces test (bean)/protective. In kind it is in vivo. The conditions noted are these: protective, active compound concentration 10 ppm, evaluation 10 days after inoculation. The protocol:
Uromyces Test (Bean)/Protective [table] To produce a suitable preparation of active compound, 1 part by weight of N-ethyl-N-methyl-N′-[4-phenoxy-2,5-xylyl]formamidine (according to formula (1)) is mixed with the stated amounts of solvent and emulsifier, and the concentrate is diluted with water to the desired concentration. To test for protective activity, young plants are sprayed with the active compound preparation at the stated application rate. After the spray coating has dried on, the plants are inoculated with an aqueous spore suspension of the bean rust pathogen Uromyces appendiculatus and then remain in an incubation cabin at about 20° C. and 100% relative atmospheric humidity for 1 day. The plants are then placed in a greenhouse at about 21° C. and a relative atmospheric humidity of about 90%. Evaluation is carried out 10 days after the inoculation. 0% means an efficacy which corresponds to that of the control, whereas an efficacy of 100% means that no infection is observed.

Another data set relates to Sphaerotheca fuliginea. Briefly: Sphaerotheca test (cucumber)/protective. In kind it is in vivo. The conditions noted are these: protective, active compound concentration 100 ppm, evaluation 7 days after inoculation. How it is done: (§1) Sphaerotheca Test (Cucumber)/Protective [table] To produce a suitable preparation of active compound, 1 part by weight of N-ethyl-N-methyl-N′-[4-phenoxy-2,5-xylyl]formamidine (according to formula (1)) is mixed with the stated amounts of solvent and emulsifier, and the concentrate is diluted with water to the desired concentration. To test for protective activity, young plants are sprayed with the active compound preparation at the stated application rate. After the spray coating has dried on, the plants are inoculated with an aqueous spore suspension of Sphaerotheca fuliginea. The plants are then placed in a greenhouse at about 23° C. and a relative atmospheric humidity of about 90%. Evaluation is carried out 7 days after the inoculation. 0% means an efficacy which corresponds to that of the control, whereas an efficacy of 100% means that no infection is observed.

The subject of a further data set is Podosphaera leucotricha. Briefly: Podosphaera test (apple)/protective. In kind it is in vivo. The conditions noted are these: protective, active compound concentration 100 ppm, evaluation 10 days after inoculation. The protocol: as §1, with “Podosphaera” for “Sphaerotheca”, “(Apple)/Protective” for “(Cucumber)/Protective”, “the apple mildew pathogen Podosphaera leucotricha.” for “Sphaerotheca fuliginea.”, “70%.” for “90%.”, “10” for “7”

A value given as a limit tells only on which side of the number the result lay.

`Cc1cc(Oc2ccccc2)c(C)cc1N` [4-phenoxy-2,5-xylidine]: the chromatographic logP – broadly, a lipophilicity value derived from retention on a column – in data set [1] came out at 1.92.

On to `CCN(C)C=Nc1cc(C)c(Oc2ccccc2)cc1C` [(1), N-ethyl-N-methyl-N′-[4-phenoxy-2,5-xylyl]formamidine], for which the efficacy (in data set [2]; with Uromyces appendiculatus; with Sphaerotheca fuliginea; in the data set on Podosphaera leucotricha) was at least 70% each time. The logP (in general, the decadic logarithm of the partition coefficient of the neutral form, usually between octanol and water) in data set [1] stood at 4.67. In data set [1], this compound yielded a chromatographic logP of 1.87.
